Test results reported in patent US20260263651A1, “WOUND DRESSING” (UNIVERSITY OF SUNDERLAND, priority 2023, published 2026).

Assays:
[1] = system: Staphylococcus aureus; assay: Microbiological evaluation of standardised bacterial suspensions, modified wound dressing with absorbed substrate on agar; assay type: cell-based; set-up: key to Observable colour change: − indicates no colour change; +− indicates relatively discernible blue colour change; + indicates a moderately strong blue colour change; ++ indicates a strong blue colour change; conditions: for colour change: SA
Procedure: (§1) ACTIVHEAL® simply A (10×20 cm) non-adhesive foam samples were provided by Advanced Medical Solutions Ltd. The wound dressings were cut into ~5-10×5-10 mm squares, using an ethanol washed pair of scissors. A maximum of 0.20 g of the material was added into 10 mL DI water, and the pH was adjusted to ~3 by the addition of 0.1 M aq. HCl solution. The solution was stirred for 10 mins at room temperature, followed by the addition of 0.33 g EDC •HCl (1.7 mmol) and the pH was maintained at ~3 by the addition of 0.1 M aq. HCl solution. The solution was stirred at room temperature for 10 mins followed by the addition of 0.88 g compound 8 which was dissolved in DMSO or DMF. The mixture was stirred at room temperature for 48 h. The wound dressings were filtered and were washed with ethanol. To ensure the full removal of any non-coupled amide (8), the foam samples were resuspended in ethanol, stirred for 10 mins and filtered, and this process was repeated until the amide (8) was not detectable from the filtrate (this could be maintained by TLC or HPLC evaluation). The samples were dried in a vacuum oven for 3-4 h.
(§2) The aqueous solution of 3a or 3b was prepared by the following: the desired amount of the enzymatic substrate (3.0 mg for 300 mg/L, 6.0 mg for 600 mg/L, 9.0 mg for 900 mg/L, 15.0 mg for 1500 mg/L, and 30.0 mg for 3000 mg/L) was weighed out on a 4 decimal place balance within ±0.3 mg error limit into a 10 mL volumetric flask and was adjusted to 10.0 mL with DI water. The solutions were absorbed into the foam samples and dried in a vacuum oven at 40° C. overnight.
(§3) Bacterial strains were routinely cultured from working stocks in Tryptic Soy Broth (TSB) and incubated at 37° C. overnight with shaking at 150 RPM. Overnight cultures were centrifuged at 3000×g for 5 minutes, the supernatant discarded, and the pellet resuspended in 10 mL phosphate buffered saline (PBS). Bacterial inoculums were standardised by optical density at 600 nm on an Amersham Biosciences Ultrospec 10 spectrophotometer (Amersham Biosciences, Amersham, UK) to contain between 1 and 3×10^8 CFU/mL.
However, rapid evaluation of lower bacteria concentrations is essential for the desired clinical application. […] The solutions were absorbed into the wound dressing samples, which were dried overnight under vacuum at 40° C.
(§4) Two Gram negative strains (Escherichia coli—EC and Pseudomonas aeruginosa—PSA) and a Gram-positive bacterium (Staphylococcus aureus—SA) were evaluated. The bacteria were incubated overnight, centrifuged at 3000×g for 5 mins, the supernatant was discarded, and the residue pellets were resuspended in 10 mL PBS. The inoculums were standardised by measuring the optical density at 600 nm to assure a 1-3×10^8 CFU/mL. The standardised solutions were further diluted to prepare 1-3×10^6 and 1-3×10^4 CFU/mL suspension. 1×10^6 CFU would be an ideal breakpoint for a positive result, as this concentration coincides well with a level of colonisation that would likely go on to produce an infection.
(§5) 100 μL bacterial suspensions were smeared over agar plates. Wound dressing samples were added to the top of the agar and were rolled over a few times (to ensure a full coverage and to ease the visibility of the colour change). The plates were incubated at 37° C., and the results were recorded after 24 h, after 48 h, after 72 h. The results are shown in Table 3-5; − indicates no colour change, +− indicates relatively discernible blue colour change, + indicates a moderately strong blue colour change and ++ indicates a strong blue colour change.

[2] = system: Escherichia coli; assay: as above; assay type: cell-based; set-up: key to Observable colour change: − indicates no colour change; +− indicates relatively discernible blue colour change; + indicates a moderately strong blue colour change; ++ indicates a strong blue colour change
Procedure: as §1, §2, §3
However, rapid evaluation of lower bacteria concentrations is essential for the desired clinical application. Three different solutions (300, 600 and 1500 mg/L) were prepared from the substrates 3a and 3b in micro filtered DI water as a solvent. The solutions were absorbed into the wound dressing samples, which were dried overnight under vacuum at 40° C.
as §4, §5

Structure (SMILES): CCN(CC)c1ccc(NC(=O)[C@@H](N)CC(C)C)cc1.Cl [3b, (2S)-2-amino-N-[4-(diethylamino)phenyl]-4-methyl-pentanamide hydrochloride]
- Observable colour change ([1]; SA 10^4, substrate 300 mg/L, 24 h at 37° C.): −
- Observable colour change ([1]; SA 10^4, substrate 300 mg/L, 48 h at 37° C.): −
- Observable colour change ([1]; SA 10^4, substrate 300 mg/L, 72 h at 37° C.): −
- Observable colour change ([1]; SA 10^4, substrate 900 mg/L, 24 h at 37° C.): −
- Observable colour change ([1]; SA 10^4, substrate 900 mg/L, 48 h at 37° C.): −
- Observable colour change ([1]; SA 10^4, substrate 900 mg/L, 72 h at 37° C.): −
- Observable colour change ([1]; SA 10^4, substrate 1500 mg/L, 24 h at 37° C.): −
- Observable colour change ([1]; SA 10^4, substrate 1500 mg/L, 48 h at 37° C.): −
- Observable colour change ([1]; SA 10^4, substrate 1500 mg/L, 72 h at 37° C.): −
- Observable colour change ([1]; SA 10^6, substrate 300 mg/L, 24 h at 37° C.): −
- Observable colour change ([1]; SA 10^6, substrate 300 mg/L, 48 h at 37° C.): −
- Observable colour change ([1]; SA 10^6, substrate 300 mg/L, 72 h at 37° C.): −
- Observable colour change ([1]; SA 10^6, substrate 900 mg/L, 24 h at 37° C.): −
- Observable colour change ([1]; SA 10^6, substrate 900 mg/L, 48 h at 37° C.): −
- Observable colour change ([1]; SA 10^6, substrate 900 mg/L, 72 h at 37° C.): −
- Observable colour change ([1]; SA 10^6, substrate 1500 mg/L, 24 h at 37° C.): −
- Observable colour change ([1]; SA 10^6, substrate 1500 mg/L, 48 h at 37° C.): −
- Observable colour change ([1]; SA 10^6, substrate 1500 mg/L, 72 h at 37° C.): +−
- Observable colour change ([1]; SA 10^8, substrate 300 mg/L, 24 h at 37° C.): −
- Observable colour change ([1]; SA 10^8, substrate 300 mg/L, 48 h at 37° C.): −
- Observable colour change ([1]; SA 10^8, substrate 300 mg/L, 72 h at 37° C.): −
- Observable colour change ([1]; SA 10^8, substrate 900 mg/L, 24 h at 37° C.): −
- Observable colour change ([1]; SA 10^8, substrate 900 mg/L, 48 h at 37° C.): −
- Observable colour change ([1]; SA 10^8, substrate 900 mg/L, 72 h at 37° C.): −
- Observable colour change ([1]; SA 10^8, substrate 1500 mg/L, 24 h at 37° C.): −
- Observable colour change ([1]; SA 10^8, substrate 1500 mg/L, 48 h at 37° C.): +−
- Observable colour change ([1]; SA 10^8, substrate 1500 mg/L, 72 h at 37° C.): +−
- colour change ([1]; 48 h paragraph, substrate 1500 mg/L): weak, but discernible colour change
- colour change ([1]; after 72 h, substrate 1500 mg/L): weak, hardly visible colour change
- Observable colour change ([2]; EC 10^4, substrate 300 mg/L, 24 h at 37° C.): −
- Observable colour change ([2]; EC 10^4, substrate 300 mg/L, 48 h at 37° C.): +
- Observable colour change ([2]; EC 10^4, substrate 300 mg/L, 72 h at 37° C.): +
- Observable colour change ([2]; EC 10^4, substrate 900 mg/L, 24 h at 37° C.): −
- Observable colour change ([2]; EC 10^4, substrate 900 mg/L, 48 h at 37° C.): +
- Observable colour change ([2]; EC 10^4, substrate 900 mg/L, 72 h at 37° C.): ++
- Observable colour change ([2]; EC 10^4, substrate 1500 mg/L, 24 h at 37° C.): −
- Observable colour change ([2]; EC 10^4, substrate 1500 mg/L, 48 h at 37° C.): +
- Observable colour change ([2]; EC 10^4, substrate 1500 mg/L, 72 h at 37° C.): ++
- Observable colour change ([2]; EC 10^6, substrate 300 mg/L, 24 h at 37° C.): −
- Observable colour change ([2]; EC 10^6, substrate 300 mg/L, 48 h at 37° C.): +
- Observable colour change ([2]; EC 10^6, substrate 300 mg/L, 72 h at 37° C.): +
- Observable colour change ([2]; EC 10^6, substrate 900 mg/L, 24 h at 37° C.): −
- Observable colour change ([2]; EC 10^6, substrate 900 mg/L, 48 h at 37° C.): +
- Observable colour change ([2]; EC 10^6, substrate 900 mg/L, 72 h at 37° C.): ++
- Observable colour change ([2]; EC 10^6, substrate 1500 mg/L, 24 h at 37° C.): +−
- Observable colour change ([2]; EC 10^6, substrate 1500 mg/L, 48 h at 37° C.): +
- Observable colour change ([2]; EC 10^6, substrate 1500 mg/L, 72 h at 37° C.): ++
- colour change ([2]; EC 10^6 CFU and 10^4 CFU, after 48 h incubation): moderate colour change
- colour change ([2]; EC 10^8, 10^6 or 10^4 CFU, after 72 h, every tested substrate concentration): moderate or strong blue colour changes
- Observable colour change ([2]; EC 10^8, substrate 300 mg/L, 24 h at 37° C.): +−
- Observable colour change ([2]; EC 10^8, substrate 300 mg/L, 48 h at 37° C.): +
- Observable colour change ([2]; EC 10^8, substrate 300 mg/L, 72 h at 37° C.): +
- Observable colour change ([2]; EC 10^8, substrate 900 mg/L, 24 h at 37° C.): +−
- Observable colour change ([2]; EC 10^8, substrate 900 mg/L, 48 h at 37° C.): ++
- Observable colour change ([2]; EC 10^8, substrate 900 mg/L, 72 h at 37° C.): ++
- Observable colour change ([2]; EC 10^8, substrate 1500 mg/L, 24 h at 37° C.): +−
- Observable colour change ([2]; EC 10^8, substrate 1500 mg/L, 48 h at 37° C.): ++
- Observable colour change ([2]; EC 10^8, substrate 1500 mg/L, 72 h at 37° C.): ++
- colour change ([2]; EC 10^8 CFU, 10^6 CFU, and 104 CFU, substrate 900 mg/L, printed in the 48 h paragraph): strong blue colour changes
- colour change ([2]; EC 10^8 CFU, after 48 h incubation, substrate 900 or 1500 mg/L): strong blue colour changes
